Experimental data published in US5574010A, “Treatment of pancreatic tumors with peptide YY and analogs thereof” (The Regents of The University of California, priority 1994, dated 1996).

Legend:
PANC-1 = assay: MTT viability assay, in vitro anti-proliferative activity; assay type: cell-based, human; conditions: 36 hours, vs saline control
Protocol: (§1) PANC-1 and MiaPaCa-2 are two human pancreatic adenocarcinomas cancer cell lines which are available commercially from suppliers such as American Type Culture Collection, ATCC (Rockville, Md.). For this example, the two tumor cells were grown in RPMI-1640 culture media supplemented with 10% fetal bovine serum, 29.2 mg/L of glutamine, 25 μg gentamicin, 5 ml penicillin, streptomycin, and fungizone solution (JRH Biosciences, Lenexa, Kans.) at 37° Celsius in a NAPCO water jacketed 5 % CO2 incubator. All cell lines were detached with 0.25 % trypsin (Clonetics, San Diego, Calif.) once to twice a week when a confluent monolayer of tumor cells was achieved. Cells were pelleted for 7 minutes at 500 g in a refrigerated centrifuge at 4 ° Celsius, and resuspended in trypsin free fortified RPMI 1640 culture media. Viable cells were counted on a hemocytometer slide with trypan blue.
(§2) Ten thousand, 20,000, 40,000 and 80,000 cells of each type were added to 96 well microculture plates (Costar, Cambridge, Mass.) in a total volume of 200 μl of culture media per well. Cells were allowed to adhere for 24 hours prior to addition of the PYY or Analog #1 peptides. Fresh culture media was exchanged prior to addition of peptides. In vitro incubation of pancreatic tumor cells with either PYY or Analog #1 was continued for 6 hours and 36 hours in length. PYY was added to cells at doses of 250 pmol, 25 pmol, and 2.5 pmol per well (N =14). Analog #1 was added to cells cultures at doses of 400 pmol, 40 pmol, and 4 pmol per well. Control wells received 2 μl of 0.9% saline to mimic the volume and physical disturbance upon adhered tumor cells. Each 96 well plate contained 18 control wells to allow for comparison within each plate during experimentation. Ninety-six (96) well plates were repeated 6 times with varying concentrations of PYY and Analog #1 in both the PANC-1 and MiaPaCa-2 cells.
(§3) At the end of the incubation period, 3-(4,5-dimethylthiazolyl-2-yl)-2,5-diphenyltetrazolium Bromide, MTr tetrazolium bromide (Sigma, St. Louis, Mo.) was added to fresh culture media at 0.5 mg/ml. Culture media was exchanged and tumor cells were incubated for 4 hours with MTT tetrazolium bromide at 37° Celsius. At the end of incubation, culture media was aspirated. Formazon crystal precipitates were dissolved in 200 μl of dimethyl sulfoxide (Sigma, St. Louis, Mo.). Quantitation of solubilized formazon was performed by obtaining absorption readings at […] wavelength on an ELISA reader (Molecular Devices, Menlo Park, Calif.). The MTT assay measures mitochondrial NADH dependent dehydrogenase activity, and it has been among the most sensitive and reliable method to quantitative in vitro chemotherapy responses of tumor cells. (Alley, M. C., Scudiero, D. A., Monk, A., Hursey, M. L., Dzerwinski, M. J., Fine, D. L., Abbott, B. J., Mayo, J. G., Shoemaker, R. H. and Boyd, M. R., Feasibility of drug screening with panels of human tumor cell lines using a microculture tetrazolium assay Cancer Res., 48:589-601, 1988; Carmichael, J., DeGraff, W. G., Gazdar, A. F., Minna, J. D. and Mitchell, J. B., Evaluation of a tetrazolium-based semiautomated colorimetric assay: Assessment of chemosensitivity testing. Cancer Res., 47:936-942, 1987; McHale, A. P., McHale, L., Use of a tetrazolium based colorimetric assay in assessing photoradiation therapy in vitro. Cancer Lett., 41:315-321, 1988; and Saxton, R. E., Huang, M. Z., Plante D., Fetterman, H. F., Lufkin, R. B., Soudant, J., Castro, D. J., Laser and daunomycin chemophototherapy of human carcinoma cells. J. Clin. Laser Med. and Surg., 10(5):331-336, 1992.)
(§4) Analysis of absorption readings at 550 nm were analyzed by grouping wells of the same test conditions and verifying differences occurring between control and the various peptide concentration treatments by one-way ANOVA. Once statistical significance was achieved, P <0.05, each test group was compared to its paired control group by Student's T-test within each 96 well plate. […]

MiaPaCa-2 = assay: as above; assay type: cell-based, human; conditions: Mia PaCa-2, 36 hours, vs saline control
Protocol: as §1, §2, §3, §4

human Mia PaCa-2 cells = assay: In vivo growth inhibition of orthotopically transplanted pancreatic ductal adenocarcinoma; conditions: male athymic mice, orthotopic Mia PaCa-2; 200 pmol/kg/hr via mini-osmotic pumps for four weeks; vs saline control
Protocol: The human pancreatic ductal adenocarcinoma Mia Paca-2 was examined for in vivo growth inhibition by peptide YY and Analog #1. Seventy thousand to 100,000 human Mia PaCa-2 cells were orthotopically transplanted into 48 male athymic mice. After one week, the animals were treated with either PYY or Analog #1 at 200 pmol/kg/hr via mini-osmotic pumps for four weeks. The paired cultures received saline. At sacrifice, both tumor size and mass were measured. Control mice had significant human cancer growth within the pancreas as evidenced by histologic sections. At 9 weeks, ninety percent (90%) of control mice had substantial metastatic disease.

PYY: 36 amino acid residue peptide amide isolated originally from porcine intestine; the species of the PYY tested is not stated [Peptide YY]
Percent Reduction in Tumor Growth(%) Compared to Control (PANC-1; 2.5 pmol per well): 9.8% | Percent Reduction in Tumor Growth(%) Compared to Control (PANC-1; 25 pmol per well): 14.7% | Percent Reduction in Tumor Growth(%) Compared to Control (PANC-1; 250 pmol per well): 25.7% | Percent Reduction in Tumor Growth(%) Compared to Control (MiaPaCa-2; 2.5 pmol per well): 0.5% | Percent Reduction in Tumor Growth(%) Compared to Control (MiaPaCa-2; 25 pmol per well): 12.8% | Percent Reduction in Tumor Growth(%) Compared to Control (MiaPaCa-2; 250 pmol per well): 15.4% | Tumor mass decreased (human Mia PaCa-2 cells): 27%
